Source: patent US8912120B2, “Herbicidal compositions comprising 4-amino-3-chloro-5-fluoro-6-(4-chloro-2-fluoro-3-methoxyphenyl) pyridine-2-carboxylic acid or a derivative thereof and synthetic auxin herbicides” (Dow AgroSciences, LLC., priority 2012, dated 2014)
Structures can show the parent of a compound that is named as a salt. Where two headings read alike, the source gives them in different places.

How the values were obtained:
CASOB = test: Example V: postemergence herbicidal activity of mixtures in forage crops (greenhouse), CASOB; format: in vivo, Cassia obtusifolia (sicklepod); conditions: alone, 50 gae/ha, foliar, approximately 21 days
Procedure: (§1) Seeds or root cuttings of the desired test plant species were planted in Sun Gro MetroMix® 306 planting mixture, which typically has a pH of 6.0 to 6.8 and an organic matter content of about 30 percent, in plastic pots with a surface area of 126.6 square centimeters (cm^2). […] The plants were grown for 14-60 days in a greenhouse with an approximate 14 hour photoperiod which was maintained at approximately 28° C. during the day and 24° C. during the night.
(§2) Spray solutions of the second herbicide or experimental compound mixtures were prepared by adding the stock solutions to the appropriate amount of dilution solution to form 12 mL spray solution with active ingredients in two-way combinations.

SIDSP = test: Example V: postemergence herbicidal activity of mixtures in forage crops, SIDSP; format: in vivo, Sida spinosa (prickly sida); conditions: alone, 50 gae/ha, foliar, approximately 21 days
Procedure: as §1, §2

LEFCH [1] = test: Example I: postemergence foliar-applied herbicidal mixtures, direct seeded rice, LEFCH; format: in vivo, Leptochloa chinensis (Chinese sprangletop)
Procedure: (§5) The soil matrix was contained in plastic pots with a volume of 1 quart and a surface area of 83.6 square centimeters (cm^2). […] The plants were grown for 8-22 days in a greenhouse with an approximate 14 h photoperiod which was maintained at about 29° C. during the day and 26° C. during the night. Nutrients (Peters Excel® 15-5-15 5-Ca 2-Mg and iron chelate) were applied in the irrigation solution as needed and water was added on a regular basis. Supplemental lighting was provided with overhead metal halide 1000-Watt lamps as necessary. The plants were employed for testing when they reached the first through fourth true leaf stage.
(§6) Treatments consisted of the acid or esters of 4-amino-3-chloro-5-fluoro-6-(4-chloro-2-fluoro-3-methoxy-phenyl)pyridine-2-carboxylic acid (Compound A), each formulated as an SC (suspension concentrate), and various herbicidal components alone and in combination. Forms of compound A were applied on an acid equivalent basis.
(§7) For treatments comprised of formulated compounds, measured amounts of compounds were placed individually in 25 mL glass vials and diluted in a volume of 1.25% (v/v) Agri-Dex® crop oil concentrated to obtain 12× stock solutions. […] Application solutions were prepared by adding an appropriate amount of each stock solution (e.g., 1 mL) and diluted to the appropriate final concentrations with the addition of 10 mL of an aqueous mixture of 1.25% (v/v) crop oil concentrate so that the final spray solutions contained 1.25+/−0.05% (v/v) crop oil concentrate.
(§8) All stock solutions and applications solutions were visually inspected for compound compatibility prior to application. Spray solutions were applied to the plant material with an overhead Mandel track sprayer equipped with a 8002E nozzles calibrated to deliver 187 L/ha over an application area of 0.503 m^2 at a spray height of 18 to 20 inches (46 to 50 cm) above average plant canopy height. Control plants were sprayed in the same manner with the solvent blank.
(§9) The treated plants and control plants were placed in a greenhouse as described above and watered by sub-irrigation to prevent wash-off of the test compounds. After approximately 3 weeks, the condition of the test plants as compared with that of the untreated plants was determined visually and scored on a scale of 0 to 100 percent where 0 corresponds to no injury or growth inhibition and 100 corresponds to complete kill.
(§10) Colby's equation was used to determine the herbicidal effects expected from the mixtures (Colby, S. R. 1967. Calculation of the synergistic and antagonistic response of herbicide combinations. Weeds 15:20-22).
The following equation was used to calculate the expected activity of mixtures containing two active ingredients, A and B: Expected=A+B−(A×B/100)
A=observed efficacy of active ingredient A at the same concentration as used in the mixture.
B=observed efficacy of active ingredient B at the same concentration as used in the mixture.

CYPIR = test: Example I: postemergence foliar-applied herbicidal mixtures, direct seeded rice, CYPIR; format: in vivo, Cyperus iria (rice flatsedge)
SCPMA = test: Example II: in-water applied herbicidal mixtures, transplanted paddy rice, SCPMA; format: in vivo
Procedure: (§3) The prepared mud was dispensed in 365 mL aliquots into 16-ounce (oz.) non-perforated plastic pots with a surface area of 86.59 square centimeters (cm^2) leaving a headspace of 3 centimeters (cm) in each pot Mud was allowed to dry overnight prior to planting or transplanting. Rice seeds were planted in Sun Gro MetroMix® 306 planting mixture, which typically has a pH of 6.0 to 6.8 and an organic matter content of about 30 percent, in plastic plug trays. Seedlings at the second or third leaf stage of growth were transplanted into 840 mL of mud contained in 32-oz. non-perforated plastic pots with a surface area of 86.59 cm^2 4 days prior to herbicide application. […] Nutrients were added as Osmocote® (19:6:12, N:P:K^+ minor nutrients) at 2 g per 16-oz. pot and 4 g per 32-oz. pot.
(§4) Applications were made by injecting with a pipetter appropriate amounts of the application solutions, individually and sequentially, into the aqueous layer of the paddy. Control plants were treated in the same manner with the solvent blank. Applications were made so that all treated plant material received the same concentrations of acetone and crop oil concentrate.

ECHCG [2] = test: Example II: in-water applied herbicidal mixtures, transplanted paddy rice, ECHCG; format: in vivo, Echinochloa crus-galli (barnyardgrass)
Procedure: as §3, §4

SINAR = test: Example V: postemergence herbicidal activity of mixtures in forage crops, SINAR; format: in vivo, Sinapis arvensis (wild mustard); conditions: alone, 50 gae/ha, foliar, approximately 21 days
Procedure: as §1, §2

ECHOR = test: Example II: in-water applied herbicidal mixtures, transplanted paddy rice, ECHOR; format: in vivo, Echinochloa oryzoides (early watergrass); conditions: Echinochloa oryzoides; for pest or weed control at 70 g/ha: 70 gae/ha
Procedure: as §3, §4

ECHCO = test: Example I: postemergence foliar-applied herbicidal mixtures, direct seeded rice, ECHCO
ECHCG [3] = test: Example I: postemergence foliar-applied herbicidal mixtures, direct seeded rice, ECHCG
SCPJU = test: Example II: in-water applied herbicidal mixtures, transplanted paddy rice, SCPJU; format: in vivo, Schoenoplectus juncoides (Japanese bulrush); conditions: 25 DAA
Procedure: as §3, §4

CYPDI = test: Example I: postemergence foliar-applied herbicidal mixtures, direct seeded rice, CYPDI; format: in vivo, Cyperus difformis (smallflower umbrella sedge)
Procedure: as §5, §6, §7, §8, §9, §10
The following equation was used to calculate the expected activity of mixtures containing two active ingredients, A and B: Expected=A+B−(A×B/100) […]

LEFCH [4] = test: Example II: in-water applied herbicidal mixtures, transplanted paddy rice, LEFCH; format: in vivo, Leptochloa chinensis (Chinese sprangletop); conditions: 25 DAA; 70 gae/ha
Procedure: as §3, §4

[5] = 70 gae/ha (Compound A Benzyl Ester rate not given)
[6] = 140 gae/ha (Compound A Benzyl Ester rate not given)

## COc1c(Cl)ccc(Cl)c1C(=O)O [Dicamba DMA Salt, 3,6-dichloro-2-methoxybenzoic acid compound with N-methylmethanamine, reference compound]
CASOB
  CASOB Obs (observed value): 20%
SIDSP
  SIDSP Obs (observed value): 25%
LEFCH [1]; 140 gae/ha
  Visual Weed Control (%) - 20 DAA LEFCH Obs: 0%
LEFCH [1]; 280 gae/ha
  Visual Weed Control (%) - 20 DAA LEFCH Obs: 0%
CYPIR; 70 gae/ha
  Visual Weed Control (%) - 20 DAA CYPIR Obs: 0%
CYPIR; 140 gae/ha
  Visual Weed Control (%) - 20 DAA CYPIR Obs: 0%
CYPIR; 280 gae/ha
  Visual Weed Control (%) - 20 DAA CYPIR Obs: 35%
SCPMA; 21 DAA, 140 gae/ha
  Visual Weed Control (%) Obs: 0%
SCPMA; 21 DAA, 140 gai/ha
  Visual Weed Control (%) Obs: 0%
SCPMA; 21 DAA, 280 gae/ha
  Visual Weed Control (%) Obs: 0%
ECHCG [2]; 21 DAA, 140 gae/ha
  Visual Weed Control (%) Obs: 0%
ECHCG [2]; 21 DAA, 280 gae/ha
  Visual Weed Control (%) Obs: 10%
SINAR
  SINAR Obs (observed value): 65%
ECHOR; 504 h, read-out: Visual Weed Control (%) Obs, 21 DAA, 140 gae/ha
  pest or weed control at 140 g/ha: 10%
ECHOR; 504 h, read-out: Visual Weed Control (%) Obs, 21 DAA, 140 gai/ha
  pest or weed control at 140 g/ha: 10%
ECHOR; 504 h, read-out: Visual Weed Control (%) Obs, 21 DAA, 280 gae/ha
  pest or weed control at 280 g/ha: 15%
ECHOR; 504 h, read-out: Visual Weed Control (%) Obs, 21 DAA, 280 gai/ha
  pest or weed control at 280 g/ha: 15%
ECHCO; 70 gae/ha
  Visual Weed Control (%) - 20 DAA ECHCO Obs: 0%
ECHCO; 140 gae/ha
  Visual Weed Control (%) - 20 DAA ECHCO Obs: 0%
ECHCO; 280 gae/ha
  Visual Weed Control (%) - 20 DAA ECHCO Obs: 0%

## CCCCCCC(C)OC(=O)COc1nc(F)c(Cl)c(N)c1Cl (stereo not drawn) [Fluroxypyr MHE, 1-methylheptyl 2-[(4-amino-3,5-dichloro-6-fluoro-2-pyridinyl)oxy]acetate, reference compound]
LEFCH [1]; 280 gae/ha
  Visual Weed Control (%) - 19 DAA LEFCH Obs: 28%
ECHCG [3]; 70 gae/ha
  Visual Weed Control (%) - 21 DAA ECHCG Obs: 0%
ECHCG [3]; [5]
  Visual Weed Control (%) - 21 DAA ECHCG Obs: 0%
ECHCG [3]; 140 gae/ha
  Visual Weed Control (%) - 21 DAA ECHCG Obs: 0%
ECHCG [3]; [6]
  Visual Weed Control (%) - 21 DAA ECHCG Obs: 0%
ECHCG [3]; 280 gae/ha
  Visual Weed Control (%) - 19 DAA ECHCG Obs: 25%
SCPJU; 70 gae/ha
  Visual Weed Control (%) Obs: 20%
SCPJU; 140 gae/ha
  Visual Weed Control (%) Obs: 30%
SCPMA; 22 DAA, 149 gae/ha
  Visual Weed Control (%) Obs: 30%
ECHCG [2]; 19 DAA, 70 gae/ha
  Visual Weed Control (%) Obs: 0%
ECHCG [2]; 19 DAA, 140 gae/ha
  Visual Weed Control (%) Obs: 0%
ECHCG [2]; 19 DAA, 280 gae/ha
  Visual Weed Control (%) Obs: 0%
ECHCG [2]; 25 DAA, 140 gae/ha
  Visual Weed Control (%) Obs: 0%
CYPDI; 70 gae/ha
  Visual Weed Control (%) - 21 DAA CYPDI Obs: 15%
CYPDI; 140 gae/ha
  Visual Weed Control (%) - 21 DAA CYPDI Obs: 80%
LEFCH [4]
  Visual Injury (%) Obs: 20%
  Visual Weed Control (%) Obs: 20%
ECHOR; 456 h, read-out: Visual Weed Control (%) Obs, 19 DAA
  pest or weed control at 70 g/ha: 0%
ECHOR; 456 h, read-out: Visual Weed Control (%) Obs, 19 DAA, 140 gae/ha
  pest or weed control at 140 g/ha: 0%
ECHOR; 600 h, read-out: Visual Weed Control (%) Obs, 25 DAA
  pest or weed control at 70 g/ha: 0%
ECHOR; 600 h, read-out: Visual Weed Control (%) Obs, 25 DAA, 140 gae/ha
  pest or weed control at 140 g/ha: 0%
ECHCO; 70 gae/ha
  Visual Weed Control (%) - 21 DAA ECHCO Obs: 0%
ECHCO; [5]
  Visual Weed Control (%) - 21 DAA ECHCO Obs: 0%
ECHCO; 140 gae/ha
  Visual Weed Control (%) - 21 DAA ECHCO Obs: 0%
ECHCO; [6]
  Visual Weed Control (%) - 21 DAA ECHCO Obs: 0%
